Measurements as given in patent publication US10556907B2 (AbbVie Inc., priority 2015, dated 2020).
Counter-ions that a name gives are not always drawn.

Assays:
Experiment in all cases: Method 1: intracellular Ca2+ release (FLIPR, Calcium 5) in recombinant CHO-K1 cells
Format in all cases: cell-based
human S1PR1 receptor = target: T1, human S1PR1 receptor (Homo sapiens, UniProt P21453); conditions: (1): determined with method 1; read-out: S1P1 EC50
T1 construct: host or cells: CHO-K1
How it was run: (§1)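 CHO-K1 cells co-expressing the receptor, aequorin and Gq/i5 were loaded with Calcium 5 dye for 1 h at 37 °C, adapted 45 min to RT, then given serially diluted compound in HBSS/20 mmol/L Hepes/2.5 mmol/L probenecid/0.1% BSA, pH 7.4. FLIPR fluorescence was read; EC50 came from nonlinear fits normalized to phospho-fingolimod.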

human S1PR4 receptor = target: T2, human S1PR4 receptor (Homo sapiens, UniProt O95977); conditions: (1): determined with method 1; read-out: S1P4 EC50
T2 construct: host or cells: CHO-K1
T2 sequence (O95977 1-384): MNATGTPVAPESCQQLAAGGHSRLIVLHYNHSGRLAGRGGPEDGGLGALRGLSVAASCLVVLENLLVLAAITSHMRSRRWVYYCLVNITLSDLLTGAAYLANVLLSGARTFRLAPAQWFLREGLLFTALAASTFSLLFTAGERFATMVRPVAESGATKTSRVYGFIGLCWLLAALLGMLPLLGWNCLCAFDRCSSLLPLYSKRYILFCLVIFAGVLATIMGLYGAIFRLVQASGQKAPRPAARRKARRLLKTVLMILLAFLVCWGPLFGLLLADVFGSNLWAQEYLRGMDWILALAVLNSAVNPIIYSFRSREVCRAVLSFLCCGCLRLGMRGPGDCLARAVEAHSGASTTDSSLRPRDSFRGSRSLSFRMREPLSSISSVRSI
How it was run: as §1

human S1PR5 receptor = target: T3, human S1PR5 receptor (Homo sapiens, UniProt Q9H228); conditions: agonist potency, determined with method 1 (symbols A-D); read-out: S1P5 EC50 range
T3 construct: host or cells: CHO-K1
How it was run: as §1

T3 sequence (Q9H228 whole entry): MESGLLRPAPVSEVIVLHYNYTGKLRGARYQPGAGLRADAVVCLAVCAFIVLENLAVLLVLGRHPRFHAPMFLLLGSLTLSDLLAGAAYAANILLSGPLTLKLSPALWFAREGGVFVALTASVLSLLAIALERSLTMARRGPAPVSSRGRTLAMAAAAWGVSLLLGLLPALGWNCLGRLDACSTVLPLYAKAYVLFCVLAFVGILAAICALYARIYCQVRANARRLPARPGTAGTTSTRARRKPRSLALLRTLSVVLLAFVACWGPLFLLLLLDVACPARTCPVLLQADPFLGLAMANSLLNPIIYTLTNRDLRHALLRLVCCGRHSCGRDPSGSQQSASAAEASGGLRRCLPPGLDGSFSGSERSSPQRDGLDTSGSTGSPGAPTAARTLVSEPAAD
T1 sequence (P21453 whole entry): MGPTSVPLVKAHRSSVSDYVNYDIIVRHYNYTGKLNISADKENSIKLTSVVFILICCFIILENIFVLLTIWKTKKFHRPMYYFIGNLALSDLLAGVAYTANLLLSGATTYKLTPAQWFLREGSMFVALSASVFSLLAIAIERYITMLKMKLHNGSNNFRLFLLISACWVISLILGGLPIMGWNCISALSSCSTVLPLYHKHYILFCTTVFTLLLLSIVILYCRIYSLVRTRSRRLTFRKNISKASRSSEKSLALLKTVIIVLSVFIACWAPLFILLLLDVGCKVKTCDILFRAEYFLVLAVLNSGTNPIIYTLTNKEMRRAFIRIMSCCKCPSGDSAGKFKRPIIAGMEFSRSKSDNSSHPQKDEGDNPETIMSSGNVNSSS

Row | Structure (SMILES) | EC50 (human S1PR1 receptor) | EC50 (human S1PR4 receptor) | EC50 (human S1PR5 receptor)
1 | Cc1cc(-c2ncc3c(n2)CCN(CC(C)CC(=O)O)C3)ccc1OCc1cccc(F)c1F (stereo not drawn) [Compound 256, 4-(2-(4-((2,3-difluorobenzyl)oxy)-3-methylphenyl)-7,8-dihydropyrido[4,3-d]pyrimidin-6(5H)-yl)-3-methylbutanoic acid] | > 1000 nM | > 1000 nM | < 10 nM
2 | Cc1ccccc1COc1ccc(-c2ncc3c(n2)CCN(C[C@H](C)CC(=O)O)C3)cc1C [Compound 303] | > 1000 nM | < 1000 nM | 100 to 1000 nM
3 | Cc1cc(-c2ncc3c(n2)CCN(CC(C)CC(=O)O)C3)ccc1OCc1ccc(F)cc1 (stereo not drawn) [Compound 269, 4-[2-[4-[(4-fluorophenyl)methoxy]-3-methyl-phenyl]-7,8-dihydro-5H-pyrido[4,3-d]pyrimidin-6-yl]-3-methyl-butanoic acid 2,2,2-trifluoroacetic acid salt] | > 1000 nM | > 1000 nM | 10 to 100 nM
4 | O=C(O)CN1CCc2nc(-c3ccc(OCc4ccc(Cl)cc4)cc3)ncc2C1 [Compound 29, 2-(2-(4-((4-chlorobenzyl)oxy)phenyl)-7,8-dihydropyrido[4,3-d]pyrimidin-6(5H)-yl)acetic acid] | > 1000 nM | > 1000 nM | 100 to 1000 nM
5 | Cc1cccc(C)c1COc1ccc(-c2ncc3c(n2)CCN(CC(C)CC(=O)O)C3)c(F)c1 (stereo not drawn) [Compound 276, 4-[2-[4-[(2,6-dimethylphenyl)methoxy]-2-fluoro-phenyl]-7,8-dihydro-5H-pyrido[4,3-d]pyrimidin-6-yl]-3-methyl-butanoic acid 2,2,2-trifluoroacetic acid salt] | > 1000 nM | > 1000 nM | 10 to 100 nM
6 | C[C@@H](CC(=O)O)CN1CCc2nc(-c3ccc(CCc4ccc(Cl)cc4)cc3)ncc2C1 [Compound 278, (S)-4-(2-(4-(4-chlorophenethyl)phenyl)-7,8-dihydropyrido[4,3-d]pyrimidin-6(5H)-yl)-3-methylbutanoic acid] | > 1000 nM | > 1000 nM | 10 to 100 nM
7 | Cc1cc(-c2ncc3c(n2)CCN(C[C@@H](C)CC(=O)O)C3)ccc1OCc1ccccc1 [Compound 261, (S)-4-(2-(4-(benzyloxy)-3-methylphenyl)-7,8-dihydropyrido[4,3-d]pyrimidin-6(5H)-yl)-3-methylbutanoic acid] | > 1000 nM | > 1000 nM | 10 to 100 nM
8 | Cc1ccc(COc2ccc(-c3ncc4c(n3)CCN(CC(C)CC(=O)O)C4)c(F)c2)c(C)c1 (stereo not drawn) [Compound 304, 4-[2-[4-[(2,4-dimethylphenyl)methoxy]-2-fluoro-phenyl]-7,8-dihydro-5H-pyrido[4,3-d]pyrimidin-6-yl]-3-methyl-butanoic acid 2,2,2-trifluoroacetic acid salt] | > 1000 nM | > 1000 nM | 100 to 1000 nM
9 | CC(CC(=O)O)CN1CCc2nc(-c3ccc(C4CC4c4cccc(Cl)c4)cc3)ncc2C1 (stereo not drawn) [Compound 293, 4-(2-(4-(2-(3-chlorophenyl)cyclopropyl)phenyl)-7,8-dihydropyrido[4,3-d]pyrimidin-6(5H)-yl)-3-methylbutanoic acid] | > 1000 nM | > 1000 nM | 100 to 1000 nM
10 | CC(CC(=O)O)CN1CCc2nc(-c3ccc(OCc4cccc(Cl)c4)cc3)cnc2C1 (stereo not drawn) [Compound 209, 4-(2-(4-((3-chlorobenzyl)oxy)phenyl)-7,8-dihydropyrido[3,4-b]pyrazin-6(5H)-yl)-3-methylbutanoic acid] | > 1000 nM | > 1000 nM | < 10 nM
11 | CC(CC(=O)O)CN1CCc2nc(-c3ccc(C4CC4c4ccc(Cl)cc4)cc3)ncc2C1 (stereo not drawn) [Compound 323, 4-(2-(4-(2-(4-chlorophenyl)cyclopropyl)phenyl)-7,8-dihydropyrido[4,3-d]pyrimidin-6(5H)-yl)-3-methylbutanoic acid] | > 1000 nM | > 1000 nM | 1000 to 10000 nM
12 | CCc1ccccc1COc1ccc(-c2ncc3c(n2)CCN(CC(C)CC(=O)O)C3)cc1C (stereo not drawn) [Compound 308, 4-[2-[4-[(2-ethylphenyl)methoxy]-3-methyl-phenyl]-7,8-dihydro-5H-pyrido[4,3-d]pyrimidin-6-yl]-3-methyl-butanoic acid 2,2,2-trifluoroacetic acid salt] | > 1000 nM | < 1000 nM | 100 to 1000 nM
13 | CCc1ccc(COc2ccc(-c3ncc4c(n3)CCN(CC(C)CC(=O)O)C4)cc2C)cc1 (stereo not drawn) [Compound 306, 4-[2-[4-[(4-ethylphenyl)methoxy]-3-methyl-phenyl]-7,8-dihydro-5H-pyrido[4,3-d]pyrimidin-6-yl]-3-methyl-butanoic acid 2,2,2-trifluoroacetic acid salt] | > 1000 nM | > 1000 nM | 100 to 1000 nM
14 | Cc1ccc(COc2ccc(-c3ncc4c(n3)CCN(CC(C)CC(=O)O)C4)cc2C)c(C)c1 (stereo not drawn) [Compound 305, 4-[2-[4-[(2,4-dimethylphenyl)methoxy]-3-methyl-phenyl]-7,8-dihydro-5H-pyrido[4,3-d]pyrimidin-6-yl]-3-methyl-butanoic acid 2,2,2-trifluoroacetic acid salt] | > 1000 nM | > 1000 nM | 100 to 1000 nM
15 | Cc1ccc(COc2ccc(-c3ncc4c(n3)CCN(CC(C)CC(=O)O)C4)c(F)c2)cc1 (stereo not drawn) [Compound 307, 4-[2-[2-fluoro-4-(p-tolylmethoxy)phenyl]-7,8-dihydro-5H-pyrido[4,3-d]pyrimidin-6-yl]-3-methyl-butanoic acid 2,2,2-trifluoroacetic acid salt] | > 1000 nM | > 1000 nM | 100 to 1000 nM
16 | Cc1ccc(C)c(COc2ccc(-c3ncc4c(n3)CCN(CC(C)CC(=O)O)C4)cc2C)c1 (stereo not drawn) [Compound 311, 4-[2-[4-[(2,5-dimethylphenyl)methoxy]-3-methyl-phenyl]-7,8-dihydro-5H-pyrido[4,3-d]pyrimidin-6-yl]-3-methyl-butanoic acid 2,2,2-trifluoroacetic acid salt] | > 1000 nM | > 1000 nM | 100 to 1000 nM
17 | Cc1cc(-c2ncc3c(n2)CCN(CC(C)CC(=O)O)C3)ccc1OCc1cccc(C(F)(F)F)c1C (stereo not drawn) [Compound 273, 3-methyl-4-(2-(3-methyl-4-((2-methyl-3-(trifluoromethyl)benzyl)oxy)phenyl)-7,8-dihydropyrido[4,3-d]pyrimidin-6(5H)-yl)butanoic acid] | > 1000 nM | > 1000 nM | 10 to 100 nM
18 | CC(C(=O)O)N1CCc2nc(-c3ccc(OCc4cc(F)cc(F)c4)cc3)ncc2C1 (stereo not drawn) [Compound 299, 2-(2-(4-((3,5-difluorobenzyl)oxy)phenyl)-7,8-dihydropyrido[4,3-d]pyrimidin-6(5H)-yl)propanoic acid] | > 1000 nM | > 1000 nM | 100 to 1000 nM
19 | CC(CC(=O)O)CN1CCc2nc(C3CC(OCc4ccccc4)C3)ncc2C1 (stereo not drawn) [Compound 333, 4-(2-(3-(benzyloxy)cyclobutyl)-7,8-dihydropyrido[4,3-d]pyrimidin-6(5H)-yl)-3-methylbutanoic acid] | > 1000 nM | > 1000 nM | 1000 to 10000 nM
20 | O=C(O)C1CC(N2CCc3nc(-c4cccc(OCc5ccccc5)c4)cnc3C2)C1 (stereo not drawn) [Compound 208, 3-(2-(3-(benzyloxy)phenyl)-7,8-dihydropyrido[3,4-b]pyrazin-6(5H)-yl)cyclobutanecarboxylic acid] | > 1000 nM | > 1000 nM | 1000 to 10000 nM
21 | Cc1ccc(C(F)(F)F)cc1COc1ccc(-c2ncc3c(n2)CCN(CC(C)CC(=O)O)C3)c(F)c1 (stereo not drawn) [Compound 272, 4-[2-[2-fluoro-4-[[2-methyl-5-(trifluoromethyl)phenyl]methoxy]phenyl]-7,8-dihydro-5H-pyrido[4,3-d]pyrimidin-6-yl]-3-methyl-butanoic acid 2,2,2-trifluoroacetic acid salt] | > 1000 nM | > 1000 nM | 10 to 100 nM
22 | CCc1ccccc1COc1ccc(-c2ncc3c(n2)CCN(CC(C)CC(=O)O)C3)c(F)c1 (stereo not drawn) [Compound 296, 4-[2-[4-[(2-ethylphenyl)methoxy]-2-fluoro-phenyl]-7,8-dihydro-5H-pyrido[4,3-d]pyrimidin-6-yl]-3-methyl-butanoic acid 2,2,2-trifluoroacetic acid salt] | > 1000 nM | > 1000 nM | 100 to 1000 nM
23 | O=C(O)CC1CC(N2CCc3nc(-c4ccc(OCc5ccc(Cl)c(Cl)c5)cc4)ncc3C2)C1 (stereo not drawn) [Compound 4, 2-(3-(2-(4-((3,4-dichlorobenzyl)oxy)phenyl)-7,8-dihydropyrido[4,3-d]pyrimidin-6(5H)-yl)cyclobutyl)acetic acid] | > 1000 nM | > 1000 nM | 100 to 1000 nM
24 | CC(C(=O)O)N1CCc2nc(-c3ccc(OCc4ccc(Cl)cc4)cc3)ncc2C1 (stereo not drawn) [Compound 312, 2-(2-(4-((4-chlorobenzyl)oxy)phenyl)-7,8-dihydropyrido[4,3-d]pyrimidin-6(5H)-yl)propanoic acid] | > 1000 nM | > 1000 nM | 100 to 1000 nM
25 | Cc1cc(-c2ncc3c(n2)CCN(CC(C)CC(=O)O)C3)ccc1CCc1ccc(Cl)cc1 (stereo not drawn) [Compound 291, 4-(2-(4-(4-chlorophenethyl)-3-methylphenyl)-7,8-dihydropyrido[4,3-d]pyrimidin-6(5H)-yl)-3-methylbutanoic acid] | > 1000 nM | > 1000 nM | 100 to 1000 nM
